{
  "source": "patent US20250000865A1",
  "about": "“COMPOUND FOR REDUCING URIC ACID LEVELS” (NEWSOARA BIOPHARMA CO., LTD., priority 2021, published 2025)",
  "test_system": "healthy subjects",
  "test": "Phase I clinical trial, multiple-dose groups (once a day, 7 consecutive days): uric acid index before and after treatment",
  "type": "in vivo, human",
  "settings": "for Uric acid (UA) Mean (standard deviation) / Uric acid (UA) Median / Uric acid (UA) Minimum value / Uric acid (UA) maximum value / Uric acid (UA) Changes over baseline at last visit (on day 14), Mean (standard deviation) / Uric acid (UA) Changes over baseline at last visit (on day 14), Median / Uric acid (UA) Changes over baseline at last visit (on day 14), Minimum value / Uric acid (UA) Changes over baseline at last visit (on day 14), maximum value / Uric acid (UA) Changes over baseline on day 2, Mean (standard deviation) / Uric acid (UA) Changes over baseline on day 2, Median / Uric acid (UA) Changes over baseline on day 2, Minimum value / Uric acid (UA) Changes over baseline on day 2, maximum value / Uric acid (UA) Changes over baseline on day 11, Mean (standard deviation) / Uric acid (UA) Changes over baseline on day 11, Median / Uric acid (UA) Changes over baseline on day 11, Minimum value / Uric acid (UA) Changes over baseline on day 11, maximum value / Uric acid (UA) Changes over baseline on days 4-6, Mean (standard deviation) / Uric acid (UA) Changes over baseline on days 4-6, Median / Uric acid (UA) Changes over baseline on days 4-6, Minimum value / Uric acid (UA) Changes over baseline on days 4-6, maximum value: N = 9",
  "description": "The changes of uric acid levels in subjects in single-dose and multi-dose groups of Compound I are shown in FIG. 1A (single dose of 6 mg and single dose of 10 mg), FIG. 1B (single dose of 20 mg and single dose of 30 mg), and FIG. 2 (multi-dose of 10 mg and multi-dose of 20 mg). The corresponding results are also shown in Tables 1.1, 1.2, 1.3, and 2.1, and tables 2.2, 2.3, and 2.4.",
  "key": {"[1]": {"settings": "Baseline, multiple dose 10 mg once a day 7 days"}, "[2]": {"settings": "Baseline, multiple dose 20 mg once a day 7 days"}, "[3]": {"settings": "Day 2, multiple dose 10 mg once a day 7 days"}, "[4]": {"settings": "Day 2, multiple dose 20 mg once a day 7 days"}, "[5]": {"settings": "Day 11, multiple dose 10 mg once a day 7 days"}, "[6]": {"settings": "Day 11, multiple dose 20 mg once a day 7 days"}, "[7]": {"settings": "Days 4-6, multiple dose 10 mg once a day 7 days"}, "[8]": {"settings": "Days 4-6, multiple dose 20 mg once a day 7 days"}, "[9]": {"settings": "Last visit (day 14), multiple dose 10 mg once a day 7 days"}, "[10]": {"settings": "Last visit (day 14), multiple dose 20 mg once a day 7 days"}, "[11]": {"settings": "multiple dose 10 mg once a day 7 days"}, "[12]": {"settings": "multiple dose 20 mg once a day 7 days"}},
  "data": [
    {"smiles": "COc1cccc2c1ncc1c(=O)n(C3CCC(C(=O)O)CC3)c(=O)n(-c3cccc(Cl)c3)c12", "note": "(centres unmarked) [Compound I, 4-[1-(3-chlorophenyl)-7-methoxy-2,4-dioxo-pyrimido[5,4-c]quinolin-3-yl]cyclohexanecarboxylic acid]", "values": [
      {"measurement": "Uric acid (UA) Mean (standard deviation)", "setting": "[1]", "value": "314.4 (84.59) μmol/L"},
      {"measurement": "Uric acid (UA) Median", "setting": "[1]", "value": 290.0, "unit": "µmol/L"},
      {"measurement": "Uric acid (UA) Minimum value", "setting": "[1]", "value": 215, "unit": "µmol/L"},
      {"measurement": "Uric acid (UA) maximum value", "setting": "[1]", "value": 452, "unit": "µmol/L"},
      {"measurement": "Uric acid (UA) Mean (standard deviation)", "setting": "[2]", "value": "337.2 (50.38) μmol/L"},
      {"measurement": "Uric acid (UA) Median", "setting": "[2]", "value": 349.0, "unit": "µmol/L"},
      {"measurement": "Uric acid (UA) Minimum value", "setting": "[2]", "value": 259, "unit": "µmol/L"},
      {"measurement": "Uric acid (UA) maximum value", "setting": "[2]", "value": 400, "unit": "µmol/L"},
      {"measurement": "Uric acid (UA) Mean (standard deviation)", "setting": "[3]", "value": "254.9 (74.41) μmol/L"},
      {"measurement": "Uric acid (UA) Median", "setting": "[3]", "value": 248.0, "unit": "µmol/L"},
      {"measurement": "Uric acid (UA) Minimum value", "setting": "[3]", "value": 155, "unit": "µmol/L"},
      {"measurement": "Uric acid (UA) maximum value", "setting": "[3]", "value": 397, "unit": "µmol/L"},
      {"measurement": "Uric acid (UA) Mean (standard deviation)", "setting": "[4]", "value": "221.6 (63.82) μmol/L"},
      {"measurement": "Uric acid (UA) Median", "setting": "[4]", "value": 216.0, "unit": "µmol/L"},
      {"measurement": "Uric acid (UA) Minimum value", "setting": "[4]", "value": 142, "unit": "µmol/L"},
      {"measurement": "Uric acid (UA) maximum value", "setting": "[4]", "value": 373, "unit": "µmol/L"},
      {"measurement": "Uric acid (UA) Mean (standard deviation)", "setting": "[5]", "value": "325.1 (67.57) μmol/L"},
      {"measurement": "Uric acid (UA) Median", "setting": "[5]", "value": 314.0, "unit": "µmol/L"},
      {"measurement": "Uric acid (UA) Minimum value", "setting": "[5]", "value": 222, "unit": "µmol/L"},
      {"measurement": "Uric acid (UA) maximum value", "setting": "[5]", "value": 439, "unit": "µmol/L"},
      {"measurement": "Uric acid (UA) Mean (standard deviation)", "setting": "[6]", "value": "341.8 (58.10) μmol/L"},
      {"measurement": "Uric acid (UA) Median", "setting": "[6]", "value": 323.0, "unit": "µmol/L"},
      {"measurement": "Uric acid (UA) Minimum value", "setting": "[6]", "value": 262, "unit": "µmol/L"},
      {"measurement": "Uric acid (UA) maximum value", "setting": "[6]", "value": 460, "unit": "µmol/L"},
      {"measurement": "Uric acid (UA) Mean (standard deviation)", "setting": "[7]", "value": "201.8 (58.87) μmol/L"},
      {"measurement": "Uric acid (UA) Median", "setting": "[7]", "value": 204.0, "unit": "µmol/L"},
      {"measurement": "Uric acid (UA) Minimum value", "setting": "[7]", "value": 119, "unit": "µmol/L"},
      {"measurement": "Uric acid (UA) maximum value", "setting": "[7]", "value": 307, "unit": "µmol/L"},
      {"measurement": "Uric acid (UA) Mean (standard deviation)", "setting": "[8]", "value": "158.0 (51.31) μmol/L"},
      {"measurement": "Uric acid (UA) Median", "setting": "[8]", "value": 140.0, "unit": "µmol/L"},
      {"measurement": "Uric acid (UA) Minimum value", "setting": "[8]", "value": 105, "unit": "µmol/L"},
      {"measurement": "Uric acid (UA) maximum value", "setting": "[8]", "value": 267, "unit": "µmol/L"},
      {"measurement": "Uric acid (UA) Mean (standard deviation)", "setting": "[9]", "value": "326.9 (74.58) μmol/L"},
      {"measurement": "Uric acid (UA) Median", "setting": "[9]", "value": 337.0, "unit": "µmol/L"},
      {"measurement": "Uric acid (UA) Minimum value", "setting": "[9]", "value": 219, "unit": "µmol/L"},
      {"measurement": "Uric acid (UA) maximum value", "setting": "[9]", "value": 422, "unit": "µmol/L"},
      {"measurement": "Uric acid (UA) Mean (standard deviation)", "setting": "[10]", "value": "378.4 (37.55) μmol/L"},
      {"measurement": "Uric acid (UA) Median", "setting": "[10]", "value": 376.0, "unit": "µmol/L"},
      {"measurement": "Uric acid (UA) Minimum value", "setting": "[10]", "value": 309, "unit": "µmol/L"},
      {"measurement": "Uric acid (UA) maximum value", "setting": "[10]", "value": 440, "unit": "µmol/L"},
      {"measurement": "uric acid level on the following days (days 4-6)", "setting": "multi-dose groups", "value": "continuous decrease"},
      {"measurement": "uric acid level the next day after administration", "setting": "multi-dose groups, certain dose dependence", "value": "decreases obviously"},
      {"measurement": "Uric acid (UA) Changes over baseline at last visit (on day 14), Mean (standard deviation)", "setting": "[11]", "value": "12.4 (37.22) μmol/L"},
      {"measurement": "Uric acid (UA) Changes over baseline at last visit (on day 14), Median", "setting": "[11]", "value": 6.0, "unit": "µmol/L"},
      {"measurement": "Uric acid (UA) Changes over baseline at last visit (on day 14), Minimum value", "setting": "[11]", "value": -45, "unit": "µmol/L"},
      {"measurement": "Uric acid (UA) Changes over baseline at last visit (on day 14), maximum value", "setting": "[11]", "value": 58, "unit": "µmol/L"},
      {"measurement": "Uric acid (UA) Changes over baseline on day 2, Mean (standard deviation)", "setting": "[11]", "value": "−59.6 (40.77) μmol/L"},
      {"measurement": "Uric acid (UA) Changes over baseline on day 2, Median", "setting": "[11]", "value": -50.0, "unit": "µmol/L"},
      {"measurement": "Uric acid (UA) Changes over baseline on day 2, Minimum value", "setting": "[11]", "value": -135, "unit": "µmol/L"},
      {"measurement": "Uric acid (UA) Changes over baseline on day 2, maximum value", "setting": "[11]", "value": 6, "unit": "µmol/L"},
      {"measurement": "Uric acid (UA) Changes over baseline on day 11, Mean (standard deviation)", "setting": "[11]", "value": "10.7 (31.86) μmol/L"},
      {"measurement": "Uric acid (UA) Changes over baseline on day 11, Median", "setting": "[11]", "value": 15.0, "unit": "µmol/L"},
      {"measurement": "Uric acid (UA) Changes over baseline on day 11, Minimum value", "setting": "[11]", "value": -52, "unit": "µmol/L"},
      {"measurement": "Uric acid (UA) Changes over baseline on day 11, maximum value", "setting": "[11]", "value": 60, "unit": "µmol/L"},
      {"measurement": "Uric acid (UA) Changes over baseline on days 4-6, Mean (standard deviation)", "setting": "[11]", "value": "−112.7 (57.68) μmol/L"},
      {"measurement": "Uric acid (UA) Changes over baseline on days 4-6, Median", "setting": "[11]", "value": -118.0, "unit": "µmol/L"},
      {"measurement": "Uric acid (UA) Changes over baseline on days 4-6, Minimum value", "setting": "[11]", "value": -234, "unit": "µmol/L"},
      {"measurement": "Uric acid (UA) Changes over baseline on days 4-6, maximum value", "setting": "[11]", "value": -35, "unit": "µmol/L"},
      {"measurement": "Uric acid (UA) Changes over baseline at last visit (on day 14), Mean (standard deviation)", "setting": "[12]", "value": "41.2 (44.32) μmol/L"},
      {"measurement": "Uric acid (UA) Changes over baseline at last visit (on day 14), Median", "setting": "[12]", "value": 40.0, "unit": "µmol/L"},
      {"measurement": "Uric acid (UA) Changes over baseline at last visit (on day 14), Minimum value", "setting": "[12]", "value": -11, "unit": "µmol/L"},
      {"measurement": "Uric acid (UA) Changes over baseline at last visit (on day 14), maximum value", "setting": "[12]", "value": 135, "unit": "µmol/L"},
      {"measurement": "Uric acid (UA) Changes over baseline on day 2, Mean (standard deviation)", "setting": "[12]", "value": "−115.7 (55.40) μmol/L"},
      {"measurement": "Uric acid (UA) Changes over baseline on day 2, Median", "setting": "[12]", "value": -142.0, "unit": "µmol/L"},
      {"measurement": "Uric acid (UA) Changes over baseline on day 2, Minimum value", "setting": "[12]", "value": -184, "unit": "µmol/L"},
      {"measurement": "Uric acid (UA) Changes over baseline on day 2, maximum value", "setting": "[12]", "value": -26, "unit": "µmol/L"},
      {"measurement": "Uric acid (UA) Changes over baseline on day 11, Mean (standard deviation)", "setting": "[12]", "value": "4.6 (43.38) μmol/L"},
      {"measurement": "Uric acid (UA) Changes over baseline on day 11, Median", "setting": "[12]", "value": 2.0, "unit": "µmol/L"},
      {"measurement": "Uric acid (UA) Changes over baseline on day 11, Minimum value", "setting": "[12]", "value": -52, "unit": "µmol/L"},
      {"measurement": "Uric acid (UA) Changes over baseline on day 11, maximum value", "setting": "[12]", "value": 67, "unit": "µmol/L"},
      {"measurement": "Uric acid (UA) Changes over baseline on days 4-6, Mean (standard deviation)", "setting": "[12]", "value": "−179.2 (54.55) μmol/L"},
      {"measurement": "Uric acid (UA) Changes over baseline on days 4-6, Median", "setting": "[12]", "value": -175.0, "unit": "µmol/L"},
      {"measurement": "Uric acid (UA) Changes over baseline on days 4-6, Minimum value", "setting": "[12]", "value": -260, "unit": "µmol/L"},
      {"measurement": "Uric acid (UA) Changes over baseline on days 4-6, maximum value", "setting": "[12]", "value": -108, "unit": "µmol/L"}
    ]}
  ]
}
